Reference: patent US11419335B2, “N-arylated analogues and uses thereof” (University of Florida Research Foundation, Incorporated, priority 2016, dated 2022)
Where two headings read alike, the source gives them in different places. Values belong to the molecule of their own block, whether it stands above or below them.

How the values were obtained:
[1] = system: methicillin-sensitive Staphylococcus aureus ATCC 29213; assay: MIC broth microdilution, S. aureus 29213; format: cell-based
Experimental: (§1) The minimum inhibitory concentration (MIC) for each tested compound was determined by the broth microdilution method as recommended by the Clinical and Laboratory Standards Institute (CLSI). In a 96-well plate, eleven two-fold serial dilutions of each compound were made in a final volume of 100 μL Luria Broth. Each well was inoculated with ˜10^5 bacterial cells at the initial time of incubation, prepared from a fresh log phase culture (OD600 of 0.5 to 1.0 depending on bacterial strain). […] (MIC values were supported by spectrophotometric readings at OD600). DMSO served as our vehicle and negative control in each microdilution MIC assay. DMSO was serially diluted with a top concentration of 1% v/v.
(§2) Each well was inoculated with ˜10^5 bacterial cells at the initial time of incubation, prepared from a fresh log phase culture (OD600 of 0.5 to 1.0 depending on bacterial strain). […] The concentration range tested for each compound during this study was 0.10 to 100 μM. DMSO served as our vehicle and negative control in each microdilution MIC assay. DMSO was serially diluted with a top concentration of 1% v/v. All MIC values were obtained from a minimum of three independent experiments.

[2] = system: vancomycin-resistant Enterococcus faecium (VRE strain ATCC 700221); assay: MIC broth microdilution, VRE 700221; format: cell-based; settings: Table 4
Experimental: (§3) The minimum inhibitory concentration (MIC) for each tested compound was determined by the broth microdilution method as recommended by the Clinical and Laboratory Standards Institute (CLSI). In a 96-well plate, eleven two-fold serial dilutions of each compound were made in a final volume of 100 μL Luria Broth. Each well was inoculated with ˜10^5 bacterial cells at the initial time of incubation, prepared from a fresh log phase culture (OD600 of 0.5 to 1.0 depending on bacterial strain). The MIC was defined as the lowest concentration of compound that prevented bacterial growth after incubating 16 to 18 hours at 37° C. (MIC values were supported by spectrophotometric readings at OD600). DMSO served as our vehicle and negative control in each microdilution MIC assay. DMSO was serially diluted with a top concentration of 1% v/v.
as §3, with “for each compound was” for “for each tested compound was”, “Standards Institute (CLSI).^6 In a” for “Standards Institute (CLSI). In a”, “concentration of test compound that” for “concentration of compound that”, “37° C. The concentration range tested for each compound during this study was 0.10 to 100 μM. DMSO served” for “37° C. (MIC values were supported by spectrophotometric readings at OD600). DMSO served”, “1% v/v. All MIC values were obtained from a minimum of three independent experiments.” for “1% v/v.”

[3] = system: Klebsiella pneumoniae (ATCC 13883); assay: MIC broth microdilution, K. pneumoniae 13883; format: cell-based; settings: Table 4
Experimental: as §3
as §3, with “for each compound was” for “for each tested compound was”, “Standards Institute (CLSI).^6 In a” for “Standards Institute (CLSI). In a”, “concentration of test compound that” for “concentration of compound that”, “37° C. The concentration range tested for each compound during this study was 0.10 to 100 μM. DMSO served” for “37° C. (MIC values were supported by spectrophotometric readings at OD600). DMSO served”, “1% v/v. All MIC values were obtained from a minimum of three independent experiments.” for “1% v/v.”

[4] = system: Pseudomonas aeruginosa (PAO1); assay: MIC broth microdilution, PAO1; format: cell-based; settings: Table 4
Experimental: as §3
as §3, with “for each compound was” for “for each tested compound was”, “Standards Institute (CLSI).^6 In a” for “Standards Institute (CLSI). In a”, “concentration of test compound that” for “concentration of compound that”, “37° C. The concentration range tested for each compound during this study was 0.10 to 100 μM. DMSO served” for “37° C. (MIC values were supported by spectrophotometric readings at OD600). DMSO served”, “1% v/v. All MIC values were obtained from a minimum of three independent experiments.” for “1% v/v.”

MRSA BAA-1707 = assay: MIC broth microdilution, MRSA BAA-1707; format: cell-based, Staphylococcus aureus
Experimental: as §1, §2

[5] = system: methicillin-resistant Staphylococcus aureus MRSA-2 (clinical isolate); assay: MIC broth microdilution, MRSA-2; format: cell-based; settings: for MIC: read-out: MIC MRSA-2
Experimental: as §3
as §3, with “for each compound was” for “for each tested compound was”, “Standards Institute (CLSI).^6 In a” for “Standards Institute (CLSI). In a”, “concentration of test compound that” for “concentration of compound that”, “37° C. The concentration range tested for each compound during this study was 0.10 to 100 μM. DMSO served” for “37° C. (MIC values were supported by spectrophotometric readings at OD600). DMSO served”, “1% v/v. All MIC values were obtained from a minimum of three independent experiments.” for “1% v/v.”

[6] = system: Escherichia coli clinical isolate (UAEC-1); assay: MIC broth microdilution, UAEC-1; format: cell-based; settings: Table 4
Experimental: as §3
as §3, with “for each compound was” for “for each tested compound was”, “Standards Institute (CLSI).^6 In a” for “Standards Institute (CLSI). In a”, “concentration of test compound that” for “concentration of compound that”, “37° C. The concentration range tested for each compound during this study was 0.10 to 100 μM. DMSO served” for “37° C. (MIC values were supported by spectrophotometric readings at OD600). DMSO served”, “1% v/v. All MIC values were obtained from a minimum of three independent experiments.” for “1% v/v.”

[7] = system: methicillin-resistant Staphylococcus epidermidis (MRSE strain ATCC 35984); assay: MIC broth microdilution, MRSE 35984; format: cell-based; settings: Table 4
Experimental: as §3
as §3, with “for each compound was” for “for each tested compound was”, “Standards Institute (CLSI).^6 In a” for “Standards Institute (CLSI). In a”, “concentration of test compound that” for “concentration of compound that”, “37° C. The concentration range tested for each compound during this study was 0.10 to 100 μM. DMSO served” for “37° C. (MIC values were supported by spectrophotometric readings at OD600). DMSO served”, “1% v/v. All MIC values were obtained from a minimum of three independent experiments.” for “1% v/v.”

[8] = system: Acinetobacter baumannii (ATCC 1794); assay: MIC broth microdilution, A. baumannii 1794; format: cell-based; settings: Table 4
Experimental: as §3
as §3, with “for each compound was” for “for each tested compound was”, “Standards Institute (CLSI).^6 In a” for “Standards Institute (CLSI). In a”, “concentration of test compound that” for “concentration of compound that”, “37° C. The concentration range tested for each compound during this study was 0.10 to 100 μM. DMSO served” for “37° C. (MIC values were supported by spectrophotometric readings at OD600). DMSO served”, “1% v/v. All MIC values were obtained from a minimum of three independent experiments.” for “1% v/v.”

C. albicans SC5314 = assay: Fungal MIC susceptibility assay, C. albicans; format: cell-based, Candida albicans; settings: Candida albicans, SC5314; Table 4; antifungal
Experimental: (§4) Fungal minimum inhibition concentrations (MICs) were determined using standard microdilution methods according to the Clinical and Laboratory Standards Institute document M27-A3. The test compound concentration ranged from 0.01 to 100 μM. Amphotericin B (AmB) and itraconazole (ITC) (Fisher Scientific) were included as positive controls. DMSO, the vehicle control, was used at ≤1% v/v for these experiments. The fungal M27-A3 standard MIC assay protocol requires the following inoculum preparation protocol: The organisms were cultured onto PDA medium at 35° C. The inoculum is prepared by picking five colonies from 24-hour old culture of Candida spp. or 48-hour old culture of C. neoformans. The inoculum was suspended in 5 ml of sterile water, the resulting suspension was vortexed for 15 seconds and the cell density adjusted (by adding more sterile water) to an OD530=0.30, which yields a suspension of 1×10^6 to 5×10^6 cells per mL. The suspension was diluted 50 times and then 20 times using RPMI 1640 medium to obtain the two times test inoculum (1×10^3 to 5×10^3 cells per mL). The following steps are the same with the standard bacterial MIC protocol using 96-well plates. NOTE: RPMI 1640 medium was used in the fungal MIC assay (for both cell inoculum and compound dilution).

C. neoformans ATCC 66031 = assay: Fungal MIC susceptibility assay, C. neoformans; format: cell-based; settings: Cryptococcus neoformans, ATCC66031; Table 4; antifungal; read-out: MIC C. neof 66031
Experimental: as §4

[9] = system: human red blood cells (hRBC); assay: Hemolysis of red blood cells; format: cell-based; settings: Table 4; concentration required to lyse 50% of red blood cells
Experimental: The washing was repeated three times with the buffer. In a 96-well plate, test compounds were added to the buffer from DMSO stocks. […] The plate was then incubated for 1 hour at 37° C. After incubation, the plate was centrifuged for 5 minutes at 3,500 rpm. Then 80 μL of the supernatant was transferred to another 96-well plate and the optical density (OD) was read at 405 nm. DMSO served as our negative control (0% hemolysis) while Triton X served as our positive control (100% hemolysis). […] All reported data correspond to three independent experiments. Ten-point dose-response curves were generated in 96-well plates to determine 50% hemolysis (HC50 values) of red blood cells.
The washing was repeated three times with the buffer. In 96-well plate, the test compounds were added to the buffer. Then 50 μL of 2% of hRBCs in the buffer were added to the test plate to make the final concentrations ranging from 0.2 to 200 μM of each test compound. The plate was then incubated for 1 hour at 37° C. After incubation, the plate was centrifuged for 5 minutes at 3500 rpm and then 80 μL of the supernatant was transferred to another 96-well plate and the Optical Density (OD) was read at 405 nm. DMSO served as our negative control (0% haemolysis) and Triton X served as our positive control (100% haemolysis). The HC50 (concentration of test compound required to lyse red blood cells by 50%) was calculated by plotting the dose-response curve (not shown) with Graphpad Prism 6.0. All data were obtained from three independent haemolysis experiments.

Structure (SMILES): CCCCCCCCCCCCCCCCn1cc[n+](-c2ccc(Cl)cc2)c1C.[Br-] [Compound 6]
MIC ([1]; Table 1B): 3.13 µM | MIC ([1]; Table 3): 3.13 µM | MIC VRE 700221 [2]: 1.56 µM | MIC K. pneu. 13883 [3]: 6.25 µM | MIC PAO1 [4]: >100 µM | MIC (MRSA BAA-1707; Table 1B, read-out: MIC MRSA BAA-1707): 3.13 µM | MIC (MRSA BAA-1707; Table 3, read-out: MIC MRSA BAA-1707): 3.13 µM | MIC MRSA 1707 (MRSA BAA-1707; Table 4): 3.13 µM | MIC ([5]; Table 1B): 3.13 µM | MIC ([5]; Table 3): 3.13 µM | MIC MRSA-2 ([5]; Table 4): 3.13 µM | MIC UAEC-1 [6]: 6.25 µM | MIC MRSE 35984 [7]: 1.17a micromolar | MIC A. bau. 1794 [8]: 12.5 µM

MIC ([2]; read-out: MIC VRE 700221): > 100 µM | MIC ([3]; Klebsiella pneumoniae, ATCC13883, read-out: MIC K. pneu. 13883): > 100 µM | MIC (C. albicans SC5314): 50 µM | MIC ([4]; Pseudomonas aeruginosa, PAO1): > 100 µM | MIC (MRSA BAA-1707; Staphylococcus aureus, Table 4, read-out: MIC MRSA 1707): > 100 µM | MIC ([5]; Staphylococcus aureus, MRSA, Table 4): > 100 µM | MIC (C. neoformans ATCC 66031): 25 µM | MIC ([6]; Escherichia coli): > 100 µM | MIC ([7]; Staphylococcus epidermidis, read-out: MIC MRSE 35984): > 100 µM | MIC ([8]; Acinetobacter baumannii, ATCC1794, read-out: MIC A. bau. 1794): > 100 µM
Structure (SMILES): CCCCCCCCCCCCCCCCn1cc[n+](Cc2ccc(C[n+]3ccn(CCCCCCCCCCCCCCCC)c3C)cc2)c1C [Compound 28]

Structure (SMILES): CCCCCCCCCCCCCCCCn1cc[n+](Cc2ccccc2C[n+]2ccn(CCCCCCCCCCCCCCCC)c2C)c1C.[Br-].[Br-] [Compound 29]
MIC VRE 700221 [2]: >100 µM | RBC HC50 [9]: 34.5 µM | MIC K. pneu. 13883 [3]: >100 µM | MIC PAO1 [4]: >100 µM | MIC MRSA 1707 (MRSA BAA-1707; Table 4): >100 µM | MIC MRSA-2 ([5]; Table 4): >100 µM | MIC UAEC-1 [6]: >100 µM | MIC MRSE 35984 [7]: >100 µM | MIC A. bau. 1794 [8]: >100 µM
